# Measurements published in US4298610A, “Ester derivatives of quinolopyran-4-one-2-carboxylic acids and antiallergic antasthmatics” (priority 1978, dated 1981).
# Columns and labels:
# [1] = system: passive cutaneous anaphylaxis; experiment: duration of action in the passive cutaneous anaphylaxis test of the rats, interval between oral administration and antigen varied; assay type: in vivo, rat (SLC Wister); details: 30 mg/kg
# Method: To SLC Wister rats were administered intracutaneously egg white albumin recrystallized 5 times and Bodetallapertussis Vaccine, and serum was collected after 13 days from the rats. […] The serum was diluted 128 times and it was then administered intracutaneously to the back of the rats. After 48 hours, the compounds of the present invention in the quantities shown in Table 1 which had been suspended in 1% tragacanth solution were administered orally to the rats. A physiological salt solution in which egg white albumin and a dye (Evans' blue) were dissolved was administered intravenously, 30 minutes after the oral administration, to the rats; and 30 minutes thereafter the back skins of the rats were peeled off. The dye that transuded from the peeled skin was extracted with Na2 SO4 and acetone, and the quantities of the dye were measured by colorimetry at 620 m μ.
# In the above-described passive cutaneous anaphylaxis test of the rats, the intervals between the oral administration of the present compounds and the administration of egg white albumin and the dye were variously changed to observe the changes in the effect of the compounds depending upon the intervals.
# As a representative compound of the present invention, 2-methyl-1-pentyl ester of 7,8-dimethyl-5-hydroxy-quinolo[4,3-b]pyran-4-one-2-carboxylic acid was used. The percent inhibition is shown in Table 2 when the compound was orally administered in a ratio of 30 mg/kg.
# [2] = system: passive cutaneous anaphylaxis; experiment: passive cutaneous anaphylaxis test (P.C.A.) on rats, oral administration; assay type: in vivo, rat (SLC Wister); details: 0.5 h, rat, 30 mg/kg, antigen 30 minutes after administration, read-out: Percent inhibition (%)
# Method: Various 5-hydroxy-quinolopyran-4-one-2-carboxylic acid esters in terms of the R group represented by the general formula [I] were prepared. […] In order to estimate the efficacy of each compound as an anti-allergic antasthmatic, the efficacy was evaluated according to a passive cutaneous anaphylaxis test (P.C.A.) on rats.
# To SLC Wister rats were administered intracutaneously egg white albumin recrystallized 5 times and Bodetallapertussis Vaccine, and serum was collected after 13 days from the rats. […] A physiological salt solution in which egg white albumin and a dye (Evans' blue) were dissolved was administered intravenously, 30 minutes after the oral administration, to the rats; and 30 minutes thereafter the back skins of the rats were peeled off. The dye that transuded from the peeled skin was extracted with Na2 SO4 and acetone, and the quantities of the dye were measured by colorimetry at 620 m μ.
# [3] = system: allergic asthma; details: Cox et al; cited from earlier work
# [4] = cited from earlier work
structure (smiles),measurement,setting,value
"CCCC(C)COC(=O)c1cc(=O)c2c(O)nc3c(C)c(C)ccc3c2o1 (centres unmarked) [2-methyl-1-pentyl ester of 7,8-dimethyl-5-hydroxy-quinolo[4,3-b]pyran-4-one-2-carboxylic acid]",Percent inhibition (%),[1]; period of time 10 min.,96.5%
same,Percent inhibition (%),[1]; period of time 20 min.,98.5%
same,Percent inhibition (%),[1]; period of time 30 min.,95.0%
same,Percent inhibition (%),[1]; period of time 40 min.,93.0%
same,Percent inhibition (%),[1]; period of time 1 hr.,92.5%
same,Percent inhibition (%),[1]; period of time 2 hrs.,72.5%
same,Percent inhibition (%),[1]; period of time 3 hrs.,61.5%
same,Percent inhibition (%),[1]; period of time 4 hrs.,53.0%
same,inhibition in vivo at 30 mg/kg,[2],97.9%
O=C(O)c1cc(=O)c2c(OCC(O)COc3cccc4oc(C(=O)O)cc(=O)c34)cccc2o1 [disodium cromoglycate],effectiveness for allergic asthma,[3],effective for allergic asthma
same,absorption via oral administration,[4],cannot be absorbed via oral administration
"CCCCCCCCCCOC(=O)c1cc(=O)c2c(O)nc3c(C)c(C)ccc3c2o1 [n-decyl ester of 7,8-dimethyl-5-hydroxy-quinolo[4,3-b]pyran-4-one-2-carboxylic acid, reference compound]",inhibition in vivo at 30 mg/kg,[2],4.7%
"CCCCCCCCCCCCOC(=O)c1cc(=O)c2c(O)nc3c(C)c(C)ccc3c2o1 [n-dodecyl ester of 7,8-dimethyl-5-hydroxy-quinolo[4,3-b]pyran-4-one-2-carboxylic acid, reference compound]",inhibition in vivo at 30 mg/kg,[2],-26.2%
"CCCCCCCOC(=O)c1cc(=O)c2c(O)nc3c(C)c(C)ccc3c2o1 [n-heptyl ester of 7,8-dimethyl-5-hydroxy-quinolo[4,3-b]pyran-4-one-2-carboxylic acid, reference compound]",inhibition in vivo at 30 mg/kg,[2],36.3%
"CCCCCCOC(=O)c1cc(=O)c2c(O)nc3c(C)c(C)ccc3c2o1 [n-hexyl ester of 7,8-dimethyl-5-hydroxy-quinolo[4,3-b]pyran-4-one-2-carboxylic acid]",inhibition in vivo at 30 mg/kg,[2],72%
"CCCCCCCCOC(=O)c1cc(=O)c2c(O)nc3c(C)c(C)ccc3c2o1 [n-octyl ester of 7,8-dimethyl-5-hydroxy-quinolo[4,3-b]pyran-4-one-2-carboxylic acid, reference compound]",inhibition in vivo at 30 mg/kg,[2],39.3%
"CCCCCOC(=O)c1cc(=O)c2c(O)nc3c(C)c(C)ccc3c2o1 [n-pentyl ester of 7,8-dimethyl-5-hydroxy-quinolo[4,3-b]pyran-4-one-2-carboxylic acid, reference compound]",inhibition in vivo at 30 mg/kg,[2],26.5%
